Here are results for 13 molecules from PubChem BioAssay (NCI).

SMILES strings stand for the structures.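 The compound was tested at five concentrations on cells cultured in 96-well plates, with a 48-hour exposure period. GI50 is the concentration that inhibits growth by half. Definition used: TGI = concentration required for complete inhibition of growth.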

Test systems include CCRF-CEM leukemia; SR leukemia; ACHN renal; CAKI-1 renal; OVCAR-5 ovarian; SNB-19 CNS; K-562 leukemia; LOX IMVI melanoma; NCI/ADR-RES ovarian.
Assay in all cases: DTP human tumour cell line panel, 48 h

Regarding `CCc1cccc(C(C)C)c1C1C(=O)C(=O)N(c2nc3ccccc3s2)C(=O)C1=O`, the TGI in the assay with CCRF-CEM leukemia, with SR leukemia, with ACHN renal, in the assay on CAKI-1 renal, in the assay with OVCAR-5 ovarian and with SNB-19 CNS was more than 100 µM in each case. The TGI in the assay with K-562 leukemia and with LOX IMVI melanoma was more than 100 µM each time.

`Nc1n[nH]c(=O)c2c1c(Br)cn2C1OC(CO)C(O)C1O` (configuration not stated): the TGI (commonly the concentration at which net growth stops) was 19.2 µM in the assay on CCRF-CEM leukemia; 14.3 µM in the assay with SR leukemia; more than 100 µM in the assay on ACHN renal; more than 100 µM in the assay on CAKI-1 renal; 44 µM with OVCAR-5 ovarian; more than 100 µM with SNB-19 CNS. Besides, the TGI in the assay with K-562 leukemia is more than 100 µM; in the assay on LOX IMVI melanoma, 15.3 µM.

As to `COC(=O)c1c(OC(=O)c2ccccc2)noc1CC(=O)OC1C=CCCC1` (configuration not stated), the TGI in the assay on CCRF-CEM leukemia, with SR leukemia, in the assay on ACHN renal, in the assay on CAKI-1 renal, in the assay on SNB-19 CNS and in the assay with K-562 leukemia was more than 100 µM throughout.

Regarding `CC(=O)OC12CCCCC1C1(CCCC1)NC2=O` (configuration not stated), the TGI in the assay on CCRF-CEM leukemia, in the assay with SR leukemia, in the assay on ACHN renal, with OVCAR-5 ovarian, with SNB-19 CNS and in the assay with K-562 leukemia was more than 100 µM each time. The molecule also came in with a TGI with LOX IMVI melanoma of more than 100 µM.

For `N#CC1=C(N)Oc2c(ccc3ccccc23)C1c1ccccc1Cl` (configuration not stated), the concentration for 50% growth inhibition (GI50) – broadly, the concentration at which growth is held to half of that of the control – with CCRF-CEM leukemia was 0.269 µM; with SR leukemia, 0.107 µM; in the assay with ACHN renal, 0.718 µM; in the assay with NCI/ADR-RES ovarian, 0.133 µM; with CAKI-1 renal, 0.167 µM; with OVCAR-5 ovarian, 0.545 µM. Further, the GI50 with SNB-19 CNS was 0.59 µM; in the assay on K-562 leukemia, 0.0796 µM; with LOX IMVI melanoma, 0.479 µM. Moreover, the TGI in the assay on CCRF-CEM leukemia came to 17.2 µM; in the assay on SR leukemia it was 22.1 µM; in the assay with ACHN renal it was 19.6 µM; with NCI/ADR-RES ovarian it was 5.62 µM; in the assay with CAKI-1 renal it was 20.9 µM; in the assay on OVCAR-5 ovarian, 18.8 µM. Further, the results for the total growth inhibition concentration (TGI) in the assay on SNB-19 CNS, with K-562 leukemia and in the assay on LOX IMVI melanoma were 23.1 µM, more than 43.5 µM and 12.1 µM, respectively.

`Cc1nn(C(=O)CC(=O)Nc2ccccc2Cl)c(C)c1N=Nc1ccccc1Cl`: the TGI in the assay with CCRF-CEM leukemia, in the assay with SR leukemia, with ACHN renal, with CAKI-1 renal, in the assay with OVCAR-5 ovarian and in the assay on SNB-19 CNS was more than 100 µM in each case. Also, the TGI in the assay on K-562 leukemia and with LOX IMVI melanoma was more than 100 µM each time.

On to `COc1ccc(/C=C(\NC(=O)c2ccccc2)c2nc3ccccc3[nH]2)cc1`, for which the TGI in the assay with CCRF-CEM leukemia was more than 100 µM; in the assay on SR leukemia, 89.8 µM; with ACHN renal, more than 100 µM; with CAKI-1 renal it was more than 100 µM; in the assay on OVCAR-5 ovarian, 84.5 µM; in the assay with SNB-19 CNS it was more than 100 µM. Besides, the TGI with K-562 leukemia is more than 100 µM.

As for `CC(=O)/C=C\C(=O)NNS(=O)(=O)c1ccc(C)cc1`, the TGI with CCRF-CEM leukemia, in the assay with SR leukemia, with ACHN renal, in the assay with CAKI-1 renal, in the assay on OVCAR-5 ovarian and with SNB-19 CNS was more than 100 µM throughout. The TGI in the assay with K-562 leukemia and with LOX IMVI melanoma was more than 100 µM each time.

For the molecule `O=C1OC2C(O)COC2(OCc2c[nH]c3ccccc23)C1O` (configuration not stated) (tested in a mixture with another compound), the TGI in the assay on CCRF-CEM leukemia, in the assay with SR leukemia, in the assay on CAKI-1 renal, in the assay with OVCAR-5 ovarian, with SNB-19 CNS and in the assay on K-562 leukemia was more than 100 µM in each case. The same molecule returned a TGI in the assay on LOX IMVI melanoma of more than 100 µM.

For the molecule `CC(=O)NC1C(=O)CC(c2ccccc2)N(C)C1c1ccccc1` (configuration not stated), the TGI in the assay with CCRF-CEM leukemia, in the assay on SR leukemia, with ACHN renal, with CAKI-1 renal, in the assay on OVCAR-5 ovarian and with SNB-19 CNS was more than 100 µM in each case. In addition, the TGI in the assay on K-562 leukemia and with LOX IMVI melanoma was more than 100 µM in each case.

Regarding `CCOc1ccccc1Nc1nc(C)c(C(=O)CC(=O)C(=O)Nc2ccccc2)s1`, the TGI in the assay on CCRF-CEM leukemia, in the assay with SR leukemia, in the assay with ACHN renal, in the assay with CAKI-1 renal, in the assay with OVCAR-5 ovarian and in the assay on SNB-19 CNS was more than 100 µM in each case. Further, the TGI in the assay on K-562 leukemia and in the assay with LOX IMVI melanoma was more than 100 µM throughout.

In the case of `S=C(N/N=C/c1ccccc1)NC1CC(c2ccccc2)Oc2ccccc21` (configuration not stated), the TGI in the assay with SR leukemia, in the assay with CAKI-1 renal, with OVCAR-5 ovarian, with SNB-19 CNS, in the assay on K-562 leukemia and with LOX IMVI melanoma was more than 100 µM each time.

Take `O=[N+]([O-])c1ccc(-c2ccc(C3=Nn4c(nnc4-c4ccc(Cl)cc4)SC3)o2)cc1`: the TGI with CCRF-CEM leukemia is more than 100 µM; in the assay with SR leukemia, more than 100 µM; with ACHN renal it was more than 100 µM; in the assay on CAKI-1 renal, more than 100 µM; in the assay on OVCAR-5 ovarian, more than 100 µM; in the assay with SNB-19 CNS it was more than 76.8 µM. In addition, the TGI in the assay with K-562 leukemia and in the assay on LOX IMVI melanoma was more than 100 µM each time.
